Counter-ions that a name gives are not always drawn. Marks after values point to notes of the source that are not given here. Blank lines part the entries; values can stand above or below the compound they belong to.
Legend:
xol-1::GFP worms = assay: xol-1::GFP reporter assay for male (aneuploid) embryos; conditions: for male embryos in adult mid-ventral sections: 0.1 mg/ml in liquid culture, added 1 day post-L4 for 20 hours; for frequency of xol-1::GFP worms containing GFP+ eggs: 0.1 mg/ml, preliminary analysis
Description: In one embodiment of the invention, synchronized cultures of worms are grown for the desired developmental period (e.g., from eggs to adulthood, 4 days) on multiwell plates (e.g., 96-well plates) containing media mixed with the compound of interest at the concentration of interest (e.g., 1 μM and 100 μM). The concentrations can be adjusted if necessary to compensate for solubility differences. Following exposure, the worms are washed off the plate with a physiological buffer and then run through a high-throughput flow cytometry device (e.g., the COPAS Biosort). With this automated nematode analysis, sorting, and dispensing platform (Furlong et al., Nat Biotechnol. 2001; 19(2):153-6; Gill et al., Free Radic Biol Med. 2003; 35(6):558-65; Rea et al., Nat Genet. 2005; 37(8):894-8. PMCID: 1479894) one 96-well plate can be screened per hour. In one embodiment, test wells are alternated with mock wells to flush the equipment in order to avoid cross-contamination. […] The worm sorter not only directs the sorting of GFP positive worms from GFP negative ones but when coupled to the Profiler analysis software, also allows for the localization of the fluorescence within the worm. In one embodiment, scoring is for GFP positive eggs present in the animal's mid-ventral section (uterus), therefore, any worms showing mis-localized GFP expression will be discarded thus improving the accuracy of the screen. Positive controls used for the screen can include colchicine and nocodazole, both described as disruptors of spindle organization and therefore of chromosome segregation (Sato A, et al., Cell. 2009; 139(5):907-19; Stear et al., Mol Biol Cell. 2004; 15(11):5187-96. PMCID: 524797).
Worms are grown from eggs to adulthood (4 days) on 96-well plates containing media mixed with the compound of interest. Initially, two different concentrations are assayed, 1 μM and 100 μM, concentrations previously used in the context of other C. elegans toxicological screens (Boyd, McBride and Freedman, 2007; Boyd et al, 2009).
Following exposure, the worms are washed off the plate with buffer and run through a high-throughput flow cytometry device, commonly known as a “worm sorter” (COPAS-Biosort from Union Biometrica). The worm sorter not only directs the sorting of GFP positive worms from GFP negative ones but when coupled to the Profiler analysis software, also allows for the localization of the fluorescence within the worm. Scoring in the screen, is for GFP positive eggs present in the animal's mid-ventral section (uterus), therefore, any worms showing mis-localized GFP expression are discounted thus improving the accuracy of the screen.
The xol-1::GFP reporter strain was tested for meiotic disruption by addition of an external agent, by exposing the C. elegans to several cell cycle disruptors (microtubule disrupting agents) dissolved in DMSO, DMSO alone was used as a negative control. Each individual test agent was added to the liquid culture medium of the C. elegans at 1 day post-L4 (4 days of development) for a total of 20 hours. The C. elegans was then analyzed for the percentage of male embryos in the adult-midventral sections. Nocodazol was added to the medium at a final concentration of 0.1 mg/ml.
Adult xol-1::GFP worms were exposed to 100 μM nocodazole for 24 hours in liquid culture and the presence of GFP+ embryos in the uterus of exposed worms was monitored.
The effect of selected chemotherapeutic agents on the generation of aneuploidies was analyzed. xol-1::GFP adult worms were exposed to the compounds at a concentration of 100 μM for 24 hours in liquid culture in triplicates.
Each well contained 750 μl of M9, the drug at a final concentration of 100 μM, concentrated bacteria and young adults+eggs. The cultures were examined at 24 hours and 4 days.

C. elegans germline = assay: Size of mitotic zone of the germline (DAPI, phospho-histone H3 staining)
Excerpt: In C. elegans, the germline is comprised of two main compartments, a mitotic region (the premeiotic tip), where nuclei are under the influence of the distal tip cell that maintains them in a proliferative state; and the meiotic region, where nuclei progress through the stages of Prophase I before being fertilized. The mitotic compartment of the worm gonad following BPA exposure was examined.
(§1) BPA bears endocrine disrupting activity in many developmental contexts including gonadal, brain and mammary gland development. BPA has affinity for multiple members of the estrogen receptors family, in particular BPA binds to the human estrogen receptor alpha (ERα) and ERβ as well as estrogen-related receptor gamma (ERR-γ) and in C. elegans with nuclear hormone receptor NHR-14 which also binds estrogen. […] Two hallmarks of exposure to BPA were examined, the decrease in the size of the proliferative zone and the condensation defects observed at diakinesis, as they are both highly penetrant and consistent phenotypes. […] Similarly to the experiments described above, the size of the mitotic zone was quantified as well as condensation defects at diakinesis.
Growing Conditions and Drug Exposures. Worms were cultured according to [23] at 20° C. on NGM plates without cholesterol. […] Exposure was carried from embryogenesis to adulthood by plating sodium hypochloride treated eggs onto drug and control plates and incubated at 20° C. for four days.
Antibody Staining. DAN staining, immunostaining and analysis of stained meiotic nuclei were performed as in [25] except for ATL-1 and AIR-2 antibodies were dissected gonads were subjected to a 1% fixation method as described in [27]. […] The secondary antibodies used were: Cy3 anti-rabbit, FITC anti-guinea-pig and FITC anti-mouse (Jackson Immunochemicals), each at 1:100, Stacks of 0.2 μm slices were captured using a Leica microscope, coupled to the DeltaVision fluorescence microscope system (Applied Precision). […]

[1] = tested on: C. elegans diakinesis oocytes; assay: Diakinesis oocyte analysis (chromosome condensation, SYP-1, AIR-2, pH3); conditions: 1 mM E2; […] 4-HT
Excerpt: Proper processing of recombination events is coupled with the formation of mature bivalents during the diakinesis stage such that in mutants where recombination intermediate processing is impaired, bivalent maturation is delayed.
Associated with the changes in chromatin morphology, the SC is disassembled during late diakinesis in a tightly controlled fashion. Accordingly, SC components, such as SYP-1, are detectable on the short arms of the bivalent in the −3 oocyte but are essentially absent from the bivalents of −2 and −1 oocytes. Thus, whether a delay in chromosome remodeling could correlate with an incomplete disassembly of SC components in late diakinesis was examined.
Accurate chromosome segregation at meiosis I is characterized by the carefully orchestrated loss of cohesion between homologs coupled with retention of cohesion between sister chromatids. This regulated process involves the targeting of the Aurora-B kinase AIR-2, a member of the chromosomal passenger complex, to the short arm of the bivalents in the −1 oocyte which has been proposed to lead to the removal the meiosis-specific cohesin REC-8 from the short arms of the bivalent. To examine whether these key steps in late meiotic prophase I might be impaired in BPA treated gonads, the localization of AIR-2 in the −1 oocytes was examined. […] Phospho histone H3 (pH3) is a canonical substrate for the activity of AIR-2 [59] and accordingly, although it accumulates in the −3 to −1 oocytes, it is only detected on the short arms of the bivalent in the −1 oocyte in the presence of AIR-2 [56, 57].
as §1
Antibody Staining. DAN staining, immunostaining and analysis of stained meiotic nuclei were performed as in [25] except for ATL-1 and AIR-2 antibodies were dissected gonads were subjected to a 1% fixation method as described in [27]. Antibodies were used at the following dilutions: rabbit α-SYP-1 (1:100), mouse α-RAD-51 (1:100), rabbit α-HTP-3 (1:500), guinea pig α-HIM-8 (1:100), rabbit α-ATL-1 (1:50), rabbit α-AIR-2 (1:100) and rabbit α-pCHK-1 (1:100). The secondary antibodies used were: Cy3 anti-rabbit, FITC anti-guinea-pig and FITC anti-mouse (Jackson Immunochemicals), each at 1:100, Stacks of 0.2 μm slices were captured using a Leica microscope, coupled to the DeltaVision fluorescence microscope system (Applied Precision). The images were projections approximately halfway through 3D data stacks of whole nuclei, except for diakinesis images which encompass entire nuclei.

xol-1::LUC = assay: xol-1::luciferase reporter induction; format: in vivo, C. elegans; conditions: 1 μM or 100 μM for 24 hours, preliminary experiment
[2] = average over the chemicals of the category, 100 μM, 24 hours, liquid culture, triplicates
[3] = xol-1::GFP, C. elegans, in vivo, 24 hours, 100 μM

Compound: Triethylene melamine
Average % of worms with 1 or more GFP embryos/category (xol-1::GFP worms; [2]): 3.77% *

Compound: C[C@]12CC[C@@H]3c4ccc(O)cc4CC[C@H]3[C@@H]1CC[C@@H]2O [E2, estradiol]
increase in the number of nuclei comprising the mitotic region vs ethanol (C. elegans germline; 1 mM E2 for 4 days, DAPI staining): 13%
bivalent maturation / condensation defects at diakinesis [1]: did not cause any observable bivalent maturation defects

Compound: CC[C@]1(O)C[C@H]2CN(CCc3c([nH]c4ccccc34)[C@@](C(=O)OC)(c3cc4c(cc3OC)N(C=O)[C@H]3[C@@](O)(C(=O)OC)[C@H](OC(C)=O)[C@]5(CC)C=CCN6CC[C@]43[C@@H]65)C2)C1 [Vincristine sulfate]
Average % of worms with 1 or more GFP embryos/category (xol-1::GFP worms; [2]): 23.3% *

Compound: CC[C@]1(O)C[C@@H]2CN(CCc3c([nH]c4ccccc34)[C@@](C(=O)OC)(c3cc4c(cc3OC)N(C)[C@H]3[C@@](O)(C(=O)OC)[C@H](OC(C)=O)[C@]5(CC)C=CCN6CC[C@]43[C@@H]65)C2)C1 [Vinblastine]
Average % of worms with 1 or more GFP embryos/category (xol-1::GFP worms; [3]): 23.3% *

Compound: CN[C@H]1CCc2cc(OC)c(OC)c(OC)c2-c2ccc(OC)c(=O)cc21 [demecolcine]
male embryos in adult mid-ventral sections (xol-1::GFP worms): 2.7%
frequency of xol-1::GFP worms containing GFP+ eggs (xol-1::GFP worms): 3/66

Compound: COC(=O)Nc1nc2ccc(C(=O)c3cccs3)cc2[nH]1 [nocodazole]
male embryos in adult mid-ventral sections (xol-1::GFP worms): 37%
frequency of xol-1::GFP worms containing GFP+ eggs (xol-1::GFP worms): 6/16
worms with at least one GFP+ embryo (xol-1::GFP worms; adult worms, 100 μM, 24 hours, liquid culture): 55%
Average % of worms with 1 or more GFP embryos/category (xol-1::GFP worms; [2]): 23.3% *
induction of luciferase compared to DMSO (xol-1::LUC): significant induction

Next, values leading:

pH3 positive nuclei in mitotic zone vs control (C. elegans germline; 4 days exposure, BPA 1 mM, 4-HT […]): two-fold decrease
Compound: 4-hydroxy-tamoxifen [4-HT]

Average % of worms with 1 or more GFP embryos/category (xol-1::GFP worms; [3]): 3.77% *
Compound: CC[C@@]1(O)C(=O)OCc2c1cc1n(c2=O)Cc2cc3c(CN(C)C)c(O)ccc3nc2-1 [Topotecan HCl]

Average % of worms with 1 or more GFP embryos/category (xol-1::GFP worms; [3]): 0.6%
Compound: Oc1ncnc2[nH]ncc12 [Allopurinol]
